Experimental data taken from patent US20240254119A1 (THIRD HARMONIC BIO, INC., priority 2022, published 2024).

Tested on: not listed separately
Assay: Kinetic solubility assay
Format: physicochemical
Conditions: kinetic solubility, 50 mM PB (pH 7.4), shaken 24 hours at RT
In short: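 Test compounds from 10 mM DMSO stock were diluted in 50 mM phosphate buffer, pH 7.4, and shaken for 24 h at RT. After PTFE filtration and centrifugation, filtrate concentration was quantified by UPLC-UV/HPLC-UV against a standard curve.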

Row | Compound | Solubility (μM)
1 | CCCS(=O)(=O)N1CC(c2nc(-c3ccc(Cl)c(NC(=O)c4cnc5ccccn45)c3)no2)C1 [Compound I-220] | **** (a solubility less than or equal to 2 μM)
2 | COC(=O)N1CC(c2nc(-c3ccc(C(F)F)c(NC(=O)c4cnc5ccccn45)c3)no2)C1 [Compound I-225] | ** (a solubility greater than 10 μM and less than or equal to 50 μM)
3 | COCCS(=O)(=O)N1CC(c2nc(-c3ccc(C)c(NC(=O)c4cnc5ccccn45)c3)no2)C1 [Compound I-235] | *** (a solubility greater than 2 μM and less than or equal to 10 μM)
4 | COC(=O)N1CC(c2nc(-c3ccc(C)c(NC(=O)c4cnc5cc(OC[C@H](C)O)ccn45)c3)no2)C1 [Compound I-262] | ** (a solubility greater than 10 μM and less than or equal to 50 μM)
5 | COC(=O)N1CC(c2nc(-c3ccc(C)c(NC(=O)c4cnc5cc(OC[C@@H](C)O)ccn45)c3)no2)C1 [Compound I-263] | * (a solubility greater than 50 μM)
6 | Cc1ccc(-c2noc([C@@H](C)O)n2)cc1NC(=O)c1cnc2ccccn12 [Compound I-270] | * (a solubility greater than 50 μM)

Molecular target: T1, BCRP (BCRP-MDCKII monolayer) (Homo sapiens, UniProt Q9UNQ0)
T1 construct: host or cells: MDCKII (canine kidney) cells
T1 sequence (Q9UNQ0 1-655): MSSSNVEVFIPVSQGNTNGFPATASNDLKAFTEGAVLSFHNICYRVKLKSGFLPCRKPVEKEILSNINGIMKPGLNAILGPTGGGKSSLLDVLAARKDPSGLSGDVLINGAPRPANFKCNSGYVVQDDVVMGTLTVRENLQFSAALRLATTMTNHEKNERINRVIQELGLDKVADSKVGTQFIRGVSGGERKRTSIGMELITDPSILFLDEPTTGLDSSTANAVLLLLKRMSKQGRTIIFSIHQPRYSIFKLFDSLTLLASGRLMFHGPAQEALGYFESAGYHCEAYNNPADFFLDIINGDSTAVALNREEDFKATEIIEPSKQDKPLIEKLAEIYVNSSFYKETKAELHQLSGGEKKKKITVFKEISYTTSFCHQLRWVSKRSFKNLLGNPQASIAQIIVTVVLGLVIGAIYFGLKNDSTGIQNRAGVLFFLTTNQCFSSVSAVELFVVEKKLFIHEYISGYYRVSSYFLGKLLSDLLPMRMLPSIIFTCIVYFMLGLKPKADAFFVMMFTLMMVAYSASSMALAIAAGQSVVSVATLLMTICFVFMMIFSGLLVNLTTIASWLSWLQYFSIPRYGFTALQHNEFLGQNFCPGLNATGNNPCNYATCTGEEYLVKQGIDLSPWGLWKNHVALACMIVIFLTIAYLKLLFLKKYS
Assay: MDCKII-BCRP bidirectional transport assay
Format: in vitro ADME
Conditions: not given
In short: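 Bidirectional A→B and B→A transport across PreadyPort BCRP-MDCKII monolayers (days 12–15) was run in duplicate for 120 min at 37° C, 5% CO2 after a 15 min preincubation. Compound levels were measured by LC-MS/MS. Papp and recovery were calculated, with efflux ratio indicating transporter engagement.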

Row | Compound | MDCK-BCRP: Efflux Ratio
7 | CCCS(=O)(=O)N1CC(c2nc(-c3ccc(Cl)c(NC(=O)c4cnc5ccccn45)c3)no2)C1 [Compound I-220] | 1.17
8 | COC(=O)N1CC(c2nc(-c3ccc(C(F)F)c(NC(=O)c4cnc5ccccn45)c3)no2)C1 [Compound I-225] | 3.27
9 | COCCS(=O)(=O)N1CC(c2nc(-c3ccc(C)c(NC(=O)c4cnc5ccccn45)c3)no2)C1 [Compound I-235] | 6.86
10 | COC(=O)N1CC(c2nc(-c3ccc(C)c(NC(=O)c4cnc5cc(OC[C@H](C)O)ccn45)c3)no2)C1 [Compound I-262] | 46.5
11 | COC(=O)N1CC(c2nc(-c3ccc(C)c(NC(=O)c4cnc5cc(OC[C@@H](C)O)ccn45)c3)no2)C1 [Compound I-263] | 45.4
12 | Cc1ccc(-c2noc([C@@H](C)O)n2)cc1NC(=O)c1cnc2ccccn12 [Compound I-270] | 20.8

Same assay, conditions: apical to basolateral

Row | Compound | MDCK-BCRP: Papp A-B
13 | CCCS(=O)(=O)N1CC(c2nc(-c3ccc(Cl)c(NC(=O)c4cnc5ccccn45)c3)no2)C1 [Compound I-220] | 26.4 10^−6 cm/s
14 | COC(=O)N1CC(c2nc(-c3ccc(C(F)F)c(NC(=O)c4cnc5ccccn45)c3)no2)C1 [Compound I-225] | 11.2 10^−6 cm/s
15 | COCCS(=O)(=O)N1CC(c2nc(-c3ccc(C)c(NC(=O)c4cnc5ccccn45)c3)no2)C1 [Compound I-235] | 3.11 10^−6 cm/s
16 | COC(=O)N1CC(c2nc(-c3ccc(C)c(NC(=O)c4cnc5cc(OC[C@H](C)O)ccn45)c3)no2)C1 [Compound I-262] | 0.54 10^−6 cm/s
17 | COC(=O)N1CC(c2nc(-c3ccc(C)c(NC(=O)c4cnc5cc(OC[C@@H](C)O)ccn45)c3)no2)C1 [Compound I-263] | 0.56 10^−6 cm/s
18 | Cc1ccc(-c2noc([C@@H](C)O)n2)cc1NC(=O)c1cnc2ccccn12 [Compound I-270] | 1.3 10^−6 cm/s

Molecular target: T2, wtKIT (Homo sapiens, UniProt P10721)
T2 construct: 1888289AM in the reaction mixtures
Assay: Caliper biochemical assay, wtKIT
Conditions: Table 6, read-out: KIT Biochemical IC50 avg
In short: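 Enzyme (5.0 nM wtKIT), 1 μM FAM-labelled peptide, 400 μM ATP and 10 mM MnCl2 in HEPES pH 7.5 with 1% DMSO, incubated 3 h at 25° C. EDTA quench; substrate and phosphoproduct separated by microfluidic electrophoresis and quantified by fluorescence.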

T2 sequence (P10721 26-976): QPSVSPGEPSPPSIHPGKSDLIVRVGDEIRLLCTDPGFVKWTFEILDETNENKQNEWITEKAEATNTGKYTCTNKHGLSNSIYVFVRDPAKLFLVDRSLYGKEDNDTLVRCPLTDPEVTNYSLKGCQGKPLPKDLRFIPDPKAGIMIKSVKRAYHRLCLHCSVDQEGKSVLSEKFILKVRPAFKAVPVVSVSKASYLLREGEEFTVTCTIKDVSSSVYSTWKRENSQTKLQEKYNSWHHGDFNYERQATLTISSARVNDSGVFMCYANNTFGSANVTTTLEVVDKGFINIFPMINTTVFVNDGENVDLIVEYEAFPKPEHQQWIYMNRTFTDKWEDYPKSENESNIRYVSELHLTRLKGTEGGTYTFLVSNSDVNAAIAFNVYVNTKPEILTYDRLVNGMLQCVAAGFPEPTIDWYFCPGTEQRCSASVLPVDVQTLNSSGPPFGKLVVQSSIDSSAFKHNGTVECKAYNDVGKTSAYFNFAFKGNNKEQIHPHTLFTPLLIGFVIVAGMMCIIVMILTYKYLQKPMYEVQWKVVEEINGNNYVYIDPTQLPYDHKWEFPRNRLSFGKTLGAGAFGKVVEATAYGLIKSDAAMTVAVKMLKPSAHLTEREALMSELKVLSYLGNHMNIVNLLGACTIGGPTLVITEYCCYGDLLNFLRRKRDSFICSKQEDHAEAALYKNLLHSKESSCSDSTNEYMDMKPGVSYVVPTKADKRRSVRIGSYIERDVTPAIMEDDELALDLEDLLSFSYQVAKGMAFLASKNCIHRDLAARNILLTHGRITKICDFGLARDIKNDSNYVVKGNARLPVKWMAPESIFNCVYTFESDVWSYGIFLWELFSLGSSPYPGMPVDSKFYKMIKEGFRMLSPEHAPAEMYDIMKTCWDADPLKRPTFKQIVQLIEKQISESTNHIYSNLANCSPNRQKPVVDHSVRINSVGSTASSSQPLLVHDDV

Row | Compound | IC50 [nM]
19 | CCCS(=O)(=O)N1CC(c2nc(-c3ccc(Cl)c(NC(=O)c4cnc5ccccn45)c3)no2)C1 [Compound I-220] | ≤ 50
20 | COC(=O)N1CC(c2nc(-c3ccc(C(F)F)c(NC(=O)c4cnc5ccccn45)c3)no2)C1 [Compound I-225] | ≤ 50
21 | COCCS(=O)(=O)N1CC(c2nc(-c3ccc(C)c(NC(=O)c4cnc5ccccn45)c3)no2)C1 [Compound I-235] | ≤ 50
22 | COC(=O)N1CC(c2nc(-c3ccc(C)c(NC(=O)c4cnc5cc(OC[C@H](C)O)ccn45)c3)no2)C1 [Compound I-262] | ≤ 50
23 | COC(=O)N1CC(c2nc(-c3ccc(C)c(NC(=O)c4cnc5cc(OC[C@@H](C)O)ccn45)c3)no2)C1 [Compound I-263] | ≤ 50
24 | Cc1ccc(-c2noc([C@@H](C)O)n2)cc1NC(=O)c1cnc2ccccn12 [Compound I-270] | 50 to 500

Molecular target: T3, PDGFRα (Homo sapiens, UniProt P16234)
T3 construct: purchased Millipore 14-467 (lot 26321_ACTI)
Assay: Caliper biochemical assay, PDGFRα
Conditions: Table 6
In short: (§1)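 Kinase, FAM-labelled peptide substrate, ATP and Mn^2+ incubated with compound for 3 h at 25° C, then quenched with EDTA buffer. Substrate and phosphorylated product separated by microfluidic electrophoresis and quantified by fluorescence intensity; no-enzyme wells define 100% inhibition.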

T3 sequence (P16234 24-1089): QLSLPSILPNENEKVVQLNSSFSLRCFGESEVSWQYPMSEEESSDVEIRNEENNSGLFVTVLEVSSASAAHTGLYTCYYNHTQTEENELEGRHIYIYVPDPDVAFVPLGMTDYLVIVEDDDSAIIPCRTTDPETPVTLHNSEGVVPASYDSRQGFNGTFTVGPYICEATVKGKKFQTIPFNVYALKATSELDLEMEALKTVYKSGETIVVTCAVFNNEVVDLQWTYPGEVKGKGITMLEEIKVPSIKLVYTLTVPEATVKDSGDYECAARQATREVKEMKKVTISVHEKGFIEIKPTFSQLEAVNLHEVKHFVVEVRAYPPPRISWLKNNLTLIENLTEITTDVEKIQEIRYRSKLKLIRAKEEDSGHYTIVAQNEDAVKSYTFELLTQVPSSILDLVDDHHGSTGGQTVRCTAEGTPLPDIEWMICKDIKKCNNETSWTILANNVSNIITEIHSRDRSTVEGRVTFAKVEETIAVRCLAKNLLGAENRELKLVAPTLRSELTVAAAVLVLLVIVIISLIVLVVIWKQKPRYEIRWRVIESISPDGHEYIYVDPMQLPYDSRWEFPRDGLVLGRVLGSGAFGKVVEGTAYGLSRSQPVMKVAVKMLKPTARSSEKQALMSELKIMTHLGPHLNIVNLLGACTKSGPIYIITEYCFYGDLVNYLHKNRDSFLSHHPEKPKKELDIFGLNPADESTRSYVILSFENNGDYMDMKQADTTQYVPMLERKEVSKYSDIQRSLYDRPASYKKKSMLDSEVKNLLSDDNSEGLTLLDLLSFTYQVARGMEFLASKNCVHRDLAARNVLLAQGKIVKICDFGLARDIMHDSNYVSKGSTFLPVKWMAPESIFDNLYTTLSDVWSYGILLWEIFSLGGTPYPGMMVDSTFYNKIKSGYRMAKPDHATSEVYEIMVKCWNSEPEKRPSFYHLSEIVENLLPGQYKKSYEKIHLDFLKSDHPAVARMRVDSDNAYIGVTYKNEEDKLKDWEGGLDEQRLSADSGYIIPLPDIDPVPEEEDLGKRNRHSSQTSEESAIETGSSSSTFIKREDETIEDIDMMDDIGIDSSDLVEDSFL

Row | Compound | IC50 [nM]
25 | CCCS(=O)(=O)N1CC(c2nc(-c3ccc(Cl)c(NC(=O)c4cnc5ccccn45)c3)no2)C1 [Compound I-220] | 5000 to 30000
26 | COC(=O)N1CC(c2nc(-c3ccc(C(F)F)c(NC(=O)c4cnc5ccccn45)c3)no2)C1 [Compound I-225] | 5000 to 30000
27 | COCCS(=O)(=O)N1CC(c2nc(-c3ccc(C)c(NC(=O)c4cnc5ccccn45)c3)no2)C1 [Compound I-235] | 5000 to 30000
28 | COC(=O)N1CC(c2nc(-c3ccc(C)c(NC(=O)c4cnc5cc(OC[C@H](C)O)ccn45)c3)no2)C1 [Compound I-262] | 50 to 500
29 | COC(=O)N1CC(c2nc(-c3ccc(C)c(NC(=O)c4cnc5cc(OC[C@@H](C)O)ccn45)c3)no2)C1 [Compound I-263] | 50 to 500
30 | Cc1ccc(-c2noc([C@@H](C)O)n2)cc1NC(=O)c1cnc2ccccn12 [Compound I-270] | 5000 to 30000

Molecular target: T4, CSF-1R (Homo sapiens, UniProt P07333)
T4 construct: purchased Invitrogen PV3249 (lot 662393N)
Assay: Caliper biochemical assay, CSF-1R
Conditions: Table 6
In short: as §1

T4 sequence (P07333 20-972): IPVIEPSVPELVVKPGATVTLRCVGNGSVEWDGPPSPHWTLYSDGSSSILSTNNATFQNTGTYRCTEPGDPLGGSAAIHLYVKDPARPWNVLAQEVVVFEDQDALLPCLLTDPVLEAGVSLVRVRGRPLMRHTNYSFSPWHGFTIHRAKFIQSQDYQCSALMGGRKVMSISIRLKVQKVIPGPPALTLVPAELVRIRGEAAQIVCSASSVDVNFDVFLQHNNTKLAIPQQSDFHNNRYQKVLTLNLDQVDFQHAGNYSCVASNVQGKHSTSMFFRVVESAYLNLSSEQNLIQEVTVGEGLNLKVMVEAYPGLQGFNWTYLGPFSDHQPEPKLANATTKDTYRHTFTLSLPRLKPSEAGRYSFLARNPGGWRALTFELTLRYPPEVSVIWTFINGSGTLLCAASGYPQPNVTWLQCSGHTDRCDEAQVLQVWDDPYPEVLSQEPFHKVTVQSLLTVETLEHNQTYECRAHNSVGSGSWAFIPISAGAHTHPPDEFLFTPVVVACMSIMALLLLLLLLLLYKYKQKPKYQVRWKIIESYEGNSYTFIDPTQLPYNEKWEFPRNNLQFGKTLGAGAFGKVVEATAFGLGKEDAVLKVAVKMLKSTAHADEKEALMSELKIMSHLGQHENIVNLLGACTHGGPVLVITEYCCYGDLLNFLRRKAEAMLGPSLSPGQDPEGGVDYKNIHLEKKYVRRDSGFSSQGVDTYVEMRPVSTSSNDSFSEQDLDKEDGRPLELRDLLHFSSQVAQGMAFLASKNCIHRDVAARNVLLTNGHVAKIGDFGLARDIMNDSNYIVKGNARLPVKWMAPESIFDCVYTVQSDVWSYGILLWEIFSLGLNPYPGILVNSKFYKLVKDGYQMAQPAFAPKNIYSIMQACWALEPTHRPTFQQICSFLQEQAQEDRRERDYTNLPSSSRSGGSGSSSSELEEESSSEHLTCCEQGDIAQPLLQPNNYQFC

Row | Compound | IC50 [nM]
31 | CCCS(=O)(=O)N1CC(c2nc(-c3ccc(Cl)c(NC(=O)c4cnc5ccccn45)c3)no2)C1 [Compound I-220] | 50 to 500
32 | COC(=O)N1CC(c2nc(-c3ccc(C(F)F)c(NC(=O)c4cnc5ccccn45)c3)no2)C1 [Compound I-225] | 50 to 500
33 | COCCS(=O)(=O)N1CC(c2nc(-c3ccc(C)c(NC(=O)c4cnc5ccccn45)c3)no2)C1 [Compound I-235] | 50 to 500
34 | COC(=O)N1CC(c2nc(-c3ccc(C)c(NC(=O)c4cnc5cc(OC[C@H](C)O)ccn45)c3)no2)C1 [Compound I-262] | ≤ 50
35 | COC(=O)N1CC(c2nc(-c3ccc(C)c(NC(=O)c4cnc5cc(OC[C@@H](C)O)ccn45)c3)no2)C1 [Compound I-263] | ≤ 50
36 | Cc1ccc(-c2noc([C@@H](C)O)n2)cc1NC(=O)c1cnc2ccccn12 [Compound I-270] | ≤ 50
